Data on twelve compounds can be found in patent US6555692B1, “Preparation and use of bifunctional molecules having DNA sequence binding specificity” (California Institute of Technology, priority 1996, dated 2003).

The subject of assay [1] is 262 bp restriction fragment (EcoRI/FspI) of pBR322. Kind of assay: DNA alkylation / cleavage reactions. Type of assay: biochemical. The method, then:
Alkylation was examined on a 262 bp restriction fragment (EcoRI/FspI) of pBR322, radiolabeled on the 3′ end (10,000 cpm/reaction). Polyamide or bromodistamycin were added at appropriate concentrations. Final reaction concentrations were 10 mM sodium phosphate (pH 7.0), 100 μM sonicated calf thymus DNA. The reactions were incubated at 37° C. for 0, 1, 5, 10, 20, and 40 hours. Following incubation, the reactions were ethanol precipitated and dissolved in 10 μl 10 mM sodium phosphate buffer and heated at 90° C. for 15 minutes. Piperidine (40 μl, 1.4 M) was added and the reaction heated again for 15 minutes at 90° C. Piperidine was lyophilized off and the reactions were resuspended in 7 μl 1× TBE/80% formamide loading buffer, denatured by heating at 85° C. for 10 minutes and placed on ice. Reactions were electrophoresed on 8% polyacrylamide gels (5% cross link, 7 M urea) in 1× TBE at 2000V. Gels were dried and exposed to a storage phosphor screen (Molecular Dynamics).

In the next assay the test system is 5′-[…]-3′. Kind of assay: Quantitative DNase I footprinting, pJT-LTR 245 base pair fragment. Type of assay: binding, HIV-1.
The next assay deals with 5′-TGCGCA-3′. Kind of assay: DNase I footprint titration, pSES9hp fragment. Type of assay: binding. From the text: The experimental target plasmid pSES9hp was constructed by hybridization of the inserts:
The plasmid pSES9hp was linearized with EcoRI and PvuII and then treated with Klenow fragment, deoxyadenosine 5′-[α-^32P]triphosphate and thymidine 5′-[α-^32P]triphosphate for 3′ labeling. Alternatively, pSES9hp was linearized with EcoRI, treated with calf alkaline phosphatase, and then 5′ labeled with T4 polynucleotide kinase and deoxyadenosine 5′- [γ-^32P]triphosphate. The 5′ labeled fragment was then digested with PvuII. The labeled fragment (3′ or 5′) was loaded onto a 5% non-denaturing polyacrylamide gel, and the desired 282 base pair band was visualized by autoradiography and isolated. Chemical sequencing reactions were performed according to published methods. (Maxam, A. M. & Gilbert, W. S. (1980). Sequencing End-Labeled DNA with Base-Specific Chemical Cleavages. Methods Enzymol. 65, 499-560; Iverson, B. L. & Dervan, P. B. (1987). Adenine-specific DNA chemical sequencing reaction. […], 7823-7830.)

The subject of the next assay is 5′-AAAAAGACAAAAA-3′. As to the kind of experiment: Quantitative DNase I footprint titration. It is filed as binding. To be noted: 13 bp site. The source says: At least two distinct binding modes are expected to form for the ImPyPy-X-PyPyPy-Dp polyamides described above that bind in an extended conformation. These binding modes as “slipped” and “overlapped”. In the overlapped (9 base pair) binding mode, two ImPyPy-X-PyPyPy-Dp polyamides bind directly opposite one another. The “slipped” (13 base pair) binding mode integrates the 2:1 and 1:1 polyamide-DNA binding motifs at a single site. In this binding mode, the ImPyPy moieties of two ImPyPy-X-PyPyPy-Dp polyamides bind the central 5′-AGACA-3′ sequence in a 2:1 manner as in the ImPyPy homodimer, and the PyPyPy moieties of the polyamides bind to A,T flanking sequences as in the 1:1 complexes of distamycin.

A further assay has as its system 5′-TGTTAAACA-3′. Kind of assay: Quantitative DNase I footprint titration. To be noted: 9 bp site. It is filed as binding. From the text:
To identify a flexible linker amino acid, four polyamides of the formula ImPyPy-X-PyPyPy-Dp where X=Py, G (glycine), β, or γ, respectively, were synthesized and their equilibrium association constants determined for 5′-[…]-3′ (9 base pair) sites. (Trauger, et al. J. Am. Chem. Soc., 118, 6160 (1996).)

For assay [2], the system named is 5′-TGTTA-3′. Kind of assay: Quantitative DNase I footprint titration, equilibrium association constant.
The subject of assay [3] is 5′-TGTTA-3′. The note with it: cited from earlier work.
A further assay has as its system 5′-AGTACT-3′. Kind of assay: Quantitative DNase I footprint titration, 229 bp restriction fragment. It is filed as binding. The method, then:
(§1) ImPyPyPy-γ-ImPyPyPy-β-Dp and ImPyPyPy-γ-PyPyPyPy-β-Dp were synthesized by solid phase methods and purified by reversed phase HPLC. Equilibrium association constants for match and mismatch six base pair binding sites on a 3′^32P-labeled 229 bp restricted fragment were determined by quantitative DNase I footprint titration experiments. […] The specificity of ImPyPyPy-γ-ImPyPyPy-β-Dp and ImPyPyPy-γ-PyPyPyPy-β-Dp for their respective match sites results from very small structural changes.

In a further assay the test system is 5′-AGTATT-3′. Described as above. It is filed as binding. The method, then: as §1
Assay [4] has as its system 282 bp EcoRI/PvuII restriction fragment from plasmid pSES9hp (5′-TGGCCA-3′, 5′-TGCGCA-3′, 5′-TGGGGA-3′ sites). As to the kind of experiment: Affinity cleaving, identification of binding orientation. To be noted: 25 mM Tris-acetate, 10 mM NaCl, 100 μM/base pair calf thymus DNA, pH 7.0, 22° C. On the procedure: Affinity cleavage assays (25 mM Tris-acetate, 10 mM NaCl, 100 μM/base pair calf thymus DNA, pH 7.0 and 22° C.) were performed in order to identify the binding orientations of the EDTA analogues of the three hairpin polyamides: ImImPyPy-γ-ImImPyPy-β-Dp-EDTA, ImPyImPy-γ-ImPyImPy-β-Dp-EDTA , and ImImImIm-γ-PyPyPyPy-β-Dp-EDTA.
Depicted in FIG. 17 is a representative affinity cleaving experiment on a 3′-^32P-labeled 282 bp EcoRI/PvuII restriction fragment from plasmid pSES9hp. […] Lane 1, A reaction; lane 2, C reaction; lanes 3-5, 1 μM, 2 μM and 5 μM ImImPyPy-γ-ImImPyPy-β-Dp-EDTA (1-E); lanes 6-8, 1 μM, 2 μM and 5 μM ImPyImPy-γ-ImPyImPy-β-Dp-EDTA (2-E); lanes 9-11, 1 μM, 2 μM and 5 μM ImImImIm-γ-PyPyPyPy-β-Dp-EDTA (3-E); lane 12, intact DNA. All lanes contain 15 kcpm 3′-radiolabeled DNA, 25 mM Tris-acetate buffer (pH 7.0), 10 mM NaCl, and 100 μM/base pair calf thymus DNA. (Right) Affinity cleavage patterns for ImImPyPy-γ-ImImPyPy-β-Dp-EDTA and ImPyImPy-γ-ImPyImPy-β-Dp-EDTA at 1 μM concentration, and ImImImIm-γ-PyPyPyPy-β-Dp-EDTA at 5 μM concentration. Illustration of the 282 bp restriction fragment with the position of the sequence indicated. Bar heights are proportional to the […] at each band. Boxes represent equilibrium binding sites determined by the published model, and only sites that were quantitated by DNase I footprint titrations are boxed.

With `COc1c(O)c2c(c3cc(C(=O)N4CCc5c4c(O)c(OC)c4[nH]c(C(=O)N6C[C@H]7C[C@@]78C6=CC(=O)c6[nH]cc(C)c68)cc54)[nH]c13)CCN2C(N)=O` [(+)CC-1065], the “DNA cleavage (alkylation)” value in assay [1] (reaction time 1 hour at 37° C.) is listed as “intense cleavage at 13 adenines”.

Take `CN(C)CCCNC(=O)CCNC(=O)c1cc(NC(=O)c2cc(NC(=O)CCNC(=O)c3cc(NC(=O)c4nc(NC(=O)CCNC(=O)c5cc(NC(=O)c6nc(NC(=O)CCNC(=O)c7cc(NC(=O)c8nccn8C)cn7C)cn6C)cn5C)cn4C)cn3C)cn2C)cn1C` [ImPy-β-ImPy-β-ImPy-β-PyPy-β-Dp]: in the assay with 5′-[…]-3′, the “lower affinity at other mismatch-sites on the restriction fragment” value is given as 10-20 fold. Further, in the assay with 5′-[…]-3′ (16 bp target site, pH 7.0, 24° C., values above 1-2×10^10 M^−1 are a lower limit), the “apparent monomeric association constant Ka” value was 3.5e+10 M⁻¹. The “lower affinity at proximal two-base pair mismatch site” value with 5′-[…]-3′ ([…]) is on record as “at least 35 fold”.

Regarding `CN(C)CCCNC(=O)CCNC(=O)c1cc(NC(=O)c2nc(NC(=O)c3cc(NC(=O)c4nc(NC(=O)CCCNC(=O)c5cc(NC(=O)c6nc(NC(=O)c7cc(NC(=O)c8nccn8C)cn7C)cn6C)cn5C)cn4C)cn3C)cn2C)cn1C` [ImPyImPy-γ-ImPyImPy-β-Dp], in the assay on 5′-TGCGCA-3′, the Ka stood at 4e+07 M⁻¹ and the specificity was determined as 4 fold.

On to `CN(C)CCCNC(=O)c1cc(NC(=O)c2cc(NC(=O)c3cc(NC(=O)CCNC(=O)c4cc(NC(=O)c5cc(NC(=O)c6nccn6C)cn5C)cn4C)cn3C)cn2C)cn1C` [ImPyPy-β-PyPyPy-Dp], for which, in the assay with 5′-AAAAAGACAAAAA-3′, the “Ka higher than ImPyPy-Py-PyPyPy-Dp by a factor of” value is given as ~85. In addition, the “association constant Ka” value in the assay on 5′-AAAAAGACAAAAA-3′ (slipped binding) came to 5e+09 M⁻¹. Moreover, in the assay with 5′-TGTTAAACA-3′, the “affinity higher than ImPyPy-Py-PyPyPy-Dp by a factor of” value is ~10. This compound gave a Ka with 5′-TGTTAAACA-3′ (overlapped binding) of 8e+08 M⁻¹.

For the compound `CN(C)CCCNC(=O)c1cc(NC(=O)c2cc(NC(=O)c3cc(NC(=O)CCCNC(=O)c4cc(NC(=O)c5cc(NC(=O)c6nccn6C)cn5C)cn4C)cn3C)cn2C)cn1C` [ImPyPy-γ-PyPyPy-Dp, reference compound], the “apparent first order association constant Ka” value with 5′-TGTTA-3′ [2] (5′-TGTTA-3′ match site) was 8e+07 M⁻¹. Moreover, in the assay on 5′-TGTTA-3′ [2] (5′-TGTTA-3′ match vs 5′-TGACA-3′ mismatch), the “specificity, match site relative to single base pair mismatch site” value was 24 fold. For the same compound, in the assay on 5′-TGTTA-3′ [3] (5′-TGTTA-3′ target site, prior art), the “equilibrium association constant Ka” value is 8e+07 M⁻¹. Further, the “increase in Ka relative to the unlinked three-ring polyamide pair ImPyPy and PyPyPy” value in the assay with 5′-TGTTA-3′ [3] (5′-TGTTA-3′) is 300 fold.

Consider `CN(C)CCCNC(=O)CCNC(=O)c1cc(NC(=O)c2cc(NC(=O)c3cc(NC(=O)c4nc(NC(=O)CCCNC(=O)c5cc(NC(=O)c6cc(NC(=O)c7cc(NC(=O)c8nccn8C)cn7C)cn6C)cn5C)cn4C)cn3C)cn2C)cn1C` [ImPyPyPy-γ-ImPyPyPy-β-Dp], for which, in the assay with 5′-AGTACT-3′ (N to C—H replacement, 5′-AGTACT-3′ complex), the free energy difference was ~2.5 kcali/mole. For the same compound, the Kd on 5′-AGTACT-3′ (match site 5′-AGTACT-3′, read-out: concentration at which the match site is bound) came to 0.03 nM. In addition, in the assay with 5′-AGTACT-3′ (mismatch 5′-AGTATT-3′ vs match 5′-AGTACT-3′), the “lower affinity for single base pair mismatch site” value is ~100 fold. Also, in the assay with 5′-AGTACT-3′ (vs ImPyPyPy-γ-PyPyPyPy-β-Dp), the “reduction of affinity of the polyamide•5′-AGTACT-3′ complex on replacing a single nitrogen atom with C—H” value is ~75 fold.

`CN(C)CCCNC(=O)CCNC(=O)c1cc(NC(=O)c2cc(NC(=O)c3cc(NC(=O)c4cc(NC(=O)CCCNC(=O)c5cc(NC(=O)c6cc(NC(=O)c7cc(NC(=O)c8nccn8C)cn7C)cn6C)cn5C)cn4C)cn3C)cn2C)cn1C` [ImPyPyPy-γ-PyPyPyPy-β-Dp]: the “loss in binding energy” value in the assay with 5′-AGTATT-3′ (C—H to N replacement, 5′-AGTATT-3′ complex) was ~5.44 kJ/mol. Also, the Kd on 5′-AGTATT-3′ (match site 5′-AGTATT-3′, read-out: concentration at which the match site is bound) amounted to 0.3 nM. In the assay on 5′-AGTATT-3′ (mismatch 5′-AGTACT-3′ vs match 5′-AGTATT-3′), the “lower affinity for single base pair mismatch site” value was ~10 fold. For the same compound, the “reduction of affinity of the polyamide•5′-AGTATT-3′ complex on replacing a C—H with N” value in the assay on 5′-AGTATT-3′ (vs ImPyPyPy-γ-ImPyPyPy-β-Dp) is recorded as ~10 fold.

`Cn1cc(NC(=O)c2cc(NC(=O)c3cc(NC(=O)CBr)cn3C)cn2C)cc1C(=O)NCCC(=N)N` [N-Bromoacetyldistamycin]: the “DNA cleavage (alkylation)” value in assay [1] (after 10 hours at 37°) was “comparable amount of cleavage to (+) CC-1065 at 1 hour, but at only one adenine”; in assay [1] (reaction time 1 hour at 37° C.) it was “almost no visible cleavage”.

Regarding “Im-β-ImPy-γ-Im-β-ImPy-β-Dp [Im-βImPy-γ-Im-β-ImPy-β-Dp]”, the “affinity (in words)” value in the assay on 5′-TGCGCA-3′ (5′-TGCGCA-3′ sequences) is recorded as “subnanomolar affinities”.

For ImImImIm-γ-PyPyPyPy-β-Dp-EDTA, the “binding orientation by affinity cleaving” value in assay [4] is “single orientation”.

ImImPyPy-γ-ImImPyPy-β-Dp-EDTA: the “binding orientation by affinity cleaving” value in assay [4] was “two equivalent orientations”.

As for ImPyImPy-γ-ImPyImPy-β-Dp-EDTA, the “binding orientation by affinity cleaving” value in assay [4] is given as “two equivalent orientations”.
